{
  "source": "patent EP0349354A1",
  "about": "“Peptides PF10 to PF19 from a retro virus HIV, method for the synthesis of these peptides and their use, particularly in diagnostics” (INSTITUT PASTEUR, priority 1988, dated 1990)",
  "key": {"[1]": {"test_system": "anticorps anti-nef", "test": "ELISA for detection of anti-nef antibodies on coated peptides or nef", "assay_type": "binding, humain"}, "[2]": {"test_system": "anticorps anti-protéine F", "test": "Western blot test on peptide spots with sera of HIV-1 infected patients", "assay_type": "binding, humain", "conditions": "serum 1545 diluted 1/200; spot 10µl of peptide at 2 mg/ml", "method": "Pour les besoins du test, les différents peptides PF16, PF19, PF13, PF17 utilisés sont dilués à une concentration de 2 mg/ml.\nSur une bande de papier BIORAD pour transblot, on dépose différents spots : 1µl, 2µl, 5µl, 10µl.\nAprès séchage on pratique un test Western Blot classique en utilisant comme anticorps des sérums de patients infectés par le virus HIV-1, positifs pour la protéine F, à des dilutions variant de 1/100 à 1/300.\nLes peptides testés permettent d'aboutir aux résultats résumés dans le tableau 2 avec trois sérums différents anti-F ++ (++ signifiant une réaction plus marquée)."}},
  "data": [
    {"sequence": "XCYKLVPVEPDKVEEANKGENTSLLHPVSLHGMDDPEREVLEWRFDSRL AFHHVARELHPEYFKNCZ [PF17, protéine F HIV-1, séquence 141-205]", "values": [
      {"measurement": "nombre de sérums anti-nef positifs ayant réagi", "setting": "[1]; ELISA, out of 31 anti-nef positive sera", "result": 26},
      {"measurement": "intensité de l'immunoréactivité (OD), Serum 1", "setting": "[1]; Serum 1, anti-nef positive, 500 ng coated per well", "result": "+++ (pour OD = 0,8 à 2,0)"},
      {"measurement": "intensité de l'immunoréactivité (OD), Serum 2", "setting": "[1]; Serum 2, anti-nef positive, 500 ng coated per well", "result": "+++ (pour OD = 0,8 à 2,0)"},
      {"measurement": "intensité de l'immunoréactivité (OD), Serum 3", "setting": "[1]; Serum 3, anti-nef positive, 500 ng coated per well", "result": "+ (pour OD = 0,2 à 0,4)"},
      {"measurement": "intensité de l'immunoréactivité (OD), Serum 4", "setting": "[1]; Serum 4, anti-nef positive, 500 ng coated per well", "result": "+++ (pour OD = 0,8 à 2,0)"},
      {"measurement": "intensité de l'immunoréactivité (OD), Serum 5", "setting": "[1]; Serum 5, anti-nef positive, 500 ng coated per well", "result": "+++ (pour OD = 0,8 à 2,0)"},
      {"measurement": "intensité de l'immunoréactivité (OD), Serum 6", "setting": "[1]; Serum 6, anti-nef positive, 500 ng coated per well", "result": "+++ (pour OD = 0,8 à 2,0)"},
      {"measurement": "intensité de l'immunoréactivité (OD), Serum 7", "setting": "[1]; Serum 7, anti-nef positive, 500 ng coated per well", "result": "- (pour une densité optique (OD) inférieure à 0,2)"},
      {"measurement": "intensité de l'immunoréactivité (OD), Serum 8", "setting": "[1]; Serum 8, anti-nef positive, 500 ng coated per well", "result": "- (pour une densité optique (OD) inférieure à 0,2)"},
      {"measurement": "intensité de l'immunoréactivité (OD), Serum 9", "setting": "[1]; Serum 9, anti-nef positive, 500 ng coated per well", "result": "- (pour une densité optique (OD) inférieure à 0,2)"},
      {"measurement": "intensité de l'immunoréactivité (OD), Serum 10", "setting": "[1]; Serum 10, anti-nef positive, 500 ng coated per well", "result": "++ (pour OD = 0,4 à 0,8)"},
      {"measurement": "intensité de l'immunoréactivité (OD), Serum 11", "setting": "[1]; Serum 11, anti-nef positive, 500 ng coated per well", "result": "+ (pour OD = 0,2 à 0,4)"},
      {"measurement": "intensité de l'immunoréactivité (OD), Serum 12", "setting": "[1]; Serum 12, anti-nef positive, 500 ng coated per well", "result": "- (pour une densité optique (OD) inférieure à 0,2)"},
      {"measurement": "intensité de l'immunoréactivité (OD), Serum 13", "setting": "[1]; Serum 13, anti-nef positive, 500 ng coated per well", "result": "++ (pour OD = 0,4 à 0,8)"},
      {"measurement": "intensité de l'immunoréactivité (OD), Serum 14", "setting": "[1]; Serum 14, anti-nef positive, 500 ng coated per well", "result": "- (pour une densité optique (OD) inférieure à 0,2)"},
      {"measurement": "intensité de l'immunoréactivité (OD), Serum 15", "setting": "[1]; Serum 15, anti-nef positive, 500 ng coated per well", "result": "+++ (pour OD = 0,8 à 2,0)"},
      {"measurement": "intensité de l'immunoréactivité (OD), Serum 16", "setting": "[1]; Serum 16, anti-nef positive, 500 ng coated per well", "result": "++ (pour OD = 0,4 à 0,8)"},
      {"measurement": "intensité de l'immunoréactivité (OD), Serum 17", "setting": "[1]; Serum 17, anti-nef positive, 500 ng coated per well", "result": "++ (pour OD = 0,4 à 0,8)"},
      {"measurement": "intensité de l'immunoréactivité (OD), Serum 18", "setting": "[1]; Serum 18, anti-nef positive, 500 ng coated per well", "result": "+++ (pour OD = 0,8 à 2,0)"},
      {"measurement": "intensité de l'immunoréactivité (OD), Serum 19", "setting": "[1]; Serum 19, anti-nef positive, 500 ng coated per well", "result": "+++ (pour OD = 0,8 à 2,0)"},
      {"measurement": "intensité de l'immunoréactivité (OD), Serum 20", "setting": "[1]; Serum 20, anti-nef positive, 500 ng coated per well", "result": "++ (pour OD = 0,4 à 0,8)"},
      {"measurement": "intensité de l'immunoréactivité (OD), Serum 21", "setting": "[1]; Serum 21, anti-nef positive, 500 ng coated per well", "result": "+++ (pour OD = 0,8 à 2,0)"},
      {"measurement": "intensité de l'immunoréactivité (OD), Serum 22", "setting": "[1]; Serum 22, anti-nef positive, 500 ng coated per well", "result": "+++ (pour OD = 0,8 à 2,0)"},
      {"measurement": "intensité de l'immunoréactivité (OD), Serum 23", "setting": "[1]; Serum 23, anti-nef positive, 500 ng coated per well", "result": "++ (pour OD = 0,4 à 0,8)"},
      {"measurement": "intensité de l'immunoréactivité (OD), Serum 24", "setting": "[1]; Serum 24, anti-nef positive, 500 ng coated per well", "result": "+++ (pour OD = 0,8 à 2,0)"},
      {"measurement": "intensité de l'immunoréactivité (OD), Serum 25", "setting": "[1]; Serum 25, anti-nef positive, 500 ng coated per well", "result": "+++ (pour OD = 0,8 à 2,0)"},
      {"measurement": "intensité de l'immunoréactivité (OD), Serum 26", "setting": "[1]; Serum 26, anti-nef positive, 500 ng coated per well", "result": "++ (pour OD = 0,4 à 0,8)"},
      {"measurement": "intensité de l'immunoréactivité (OD), Serum 27", "setting": "[1]; Serum 27, anti-nef positive, 500 ng coated per well", "result": "+ (pour OD = 0,2 à 0,4)"},
      {"measurement": "intensité de l'immunoréactivité (OD), Serum 28", "setting": "[1]; Serum 28, anti-nef positive, 500 ng coated per well", "result": "++ (pour OD = 0,4 à 0,8)"},
      {"measurement": "intensité de l'immunoréactivité (OD), Serum 29", "setting": "[1]; Serum 29, anti-nef positive, 500 ng coated per well", "result": "++ (pour OD = 0,4 à 0,8)"},
      {"measurement": "intensité de l'immunoréactivité (OD), Serum 30", "setting": "[1]; Serum 30, anti-nef positive, 500 ng coated per well", "result": "+++ (pour OD = 0,8 à 2,0)"},
      {"measurement": "intensité de l'immunoréactivité (OD), Serum 31", "setting": "[1]; Serum 31, anti-nef positive, 500 ng coated per well", "result": "++ (pour OD = 0,4 à 0,8)"},
      {"measurement": "intensité de l'immunoréactivité (OD), Serum 32", "setting": "[1]; Serum 32, anti-nef negative control serum, 500 ng coated per well", "result": "- (pour une densité optique (OD) inférieure à 0,2)"},
      {"measurement": "intensité de l'immunoréactivité (OD), Serum 33", "setting": "[1]; Serum 33, anti-nef negative control serum, 500 ng coated per well", "result": "- (pour une densité optique (OD) inférieure à 0,2)"},
      {"measurement": "réaction avec sérum 1545 1/200, 10µl", "setting": "[2]", "result": "tr"}
    ]}
  ]
}
